Results taken from patent US6992070B2 (priority 2000, dated 2006).

Test system: ex vivo perfused rabbit heart (ventricular myocytes), Adgal adenovirus gene transfer
Format: cell-based

Structure (SMILES) | infection efficiency | pretreatment (exposure) time required for the enhancement of infection [min] | percentage of infected cells | percentage of infected cells in the absence of VEGF
Nc1nc2c(nc(Br)n2[C@@H]2O[C@@H]3COP(=O)(O)O[C@H]3[C@H]2O)c(=O)[nH]1 [8-Br-cGMP] | replicates the increase in infection efficiency | 2 |  | 
CCCc1nn(C)c2c(=O)[nH]c(-c3cc(S(=O)(=O)N4CCN(C)CC4)ccc3OCC)nc12 [Sildenafil, 5-[2-ethoxy-5-(4-methylpiperazin-1-ylsulphonyl)phenyl]-1-methyl-3-n-propyl-1,6-dihydro-7H-pyrazolo[4,3d]pyrimidin-7-one] |  |  | increased the percentage of infected cells | No change
O=[N+]([O-])OCC(CO[N+](=O)[O-])O[N+](=O)[O-] [nitroglycerin] | replicates the increase in infection efficiency | 2 |  | 
NCCc1c[nH]c2ccc(O)cc12 [serotonin] |  | 15 |  | 
CCCOc1ccccc1-c1nc2nn[nH]c2c(=O)[nH]1 [zaprinast] |  |  | increased the percentage of infected cells | No change
